Experimental data from PubChem BioAssay (NCI).
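Compound exposure: 48 hours, 5 concentrations, 96-well plates. GI50 marks 50% less growth. Definition used: TGI = concentration required for complete inhibition of growth.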

Experiments:
Test in all cases: NCI anticancer screen, dose series, 48 h
NCI/ADR-RES ovarian = tested on: NCI/ADR-RES ovarian
MCF7 breast = tested on: MCF7 breast
NCI-H23 lung = tested on: NCI-H23 lung
CAKI-1 renal = tested on: CAKI-1 renal
SK-MEL-28 melanoma = tested on: SK-MEL-28 melanoma
EKVX NSCLC = tested on: EKVX NSCLC
OVCAR-4 ovarian = tested on: OVCAR-4 ovarian
UACC-257 melanoma = tested on: UACC-257 melanoma
SK-MEL-5 melanoma = tested on: SK-MEL-5 melanoma
A498 renal = tested on: A498 renal

SMILES	TGI (NCI/ADR-RES ovarian) [µM]	TGI (MCF7 breast) [µM]	TGI (NCI-H23 lung) [µM]	TGI (CAKI-1 renal) [µM]	TGI (SK-MEL-28 melanoma) [µM]	TGI (EKVX NSCLC) [µM]	TGI (OVCAR-4 ovarian) [µM]	TGI (UACC-257 melanoma) [µM]	TGI (SK-MEL-5 melanoma) [µM]	TGI (A498 renal) [µM]	GI50 (NCI/ADR-RES ovarian) [µM]
COc1cc2c(cc1OCCCCCCCCN1C(=O)c3cccc4cccc(c34)C1=O)N=C[C@@H]1CCCN1C2=O	19.4	22.3	36.3	52.6	37.9	35.7	7.41	68.8	25.4	–	–
N#Cc1c(N)nc2c(c1-c1ccc(Br)cc1)CSc1ccccc1-2	> 100	> 100	> 100	68	> 100	–	> 100	72.5	> 100	> 100	–
Cc1cnoc1NS(=O)(=O)c1ccc(Nc2nnc(/C=C/c3c(O)ccc4ccccc34)c(=O)n2N)cc1	66.9	47.5	32	88.9	–	71.9	> 100	–	–	–	–
COc1ccc(C2c3cc4c(cc3OC(O)(CO)C2C(=O)O)OCO4)cc1 (centres undefined) (tested in a mixture with another compound)	–	–	50.8	–	43.8	88	> 100	50.8	39.5	> 100	–
COc1cc([C@@H]2c3cc4c(cc3[C@@H](c3c(O)cc(O)c5c3O[C@H](c3ccc(O)c(O)c3)[C@H](OC(=O)c3cc(O)c(O)c(O)c3)C5)[C@H]3COC(=O)[C@H]23)OCO4)cc(OC)c1OC	> 100	> 100	> 100	> 96.6	> 100	> 100	> 100	> 100	> 100	> 100	–
O=c1c2ccccc2[nH]c(=S)n1-c1ccc(N=Nc2cccc3cc(O)ccc23)cc1	> 100	> 100	> 100	> 100	> 100	> 100	> 100	> 100	> 100	–	–
O=C1CC2(CCC(O)(c3cccs3)C(C(=O)c3cccs3)C2)C(=O)c2ccccc2N1 (centres undefined)	> 100	> 100	> 100	> 100	–	> 100	–	> 100	> 100	> 100	–
O=C1c2ccccc2C(C2c3ccccc3C(=O)c3cc(Br)ccc32)c2ccc(Br)cc21 (centres undefined)	> 100	> 100	> 100	> 100	> 100	> 100	> 100	> 100	> 100	> 100	–
COC1CC(CC2CCC(C)C(C(C)C(=O)O)O2)OC2(OC(C)(C3CCC(C)(C4OC(C5OC(O)(CO)C(C)CC5C)CC4C)O3)CC2C)C1C (centres undefined)	> 66.1	> 27.9	8.76	38.3	6.66	49.2	53.1	4.07	1.83	3.39	2.58
CC(C)(C)[Si](C)(C)OCC1OC(n2cnc3c(N)ncnc32)CC1OS(C)(=O)=O (centres undefined)	> 100	> 100	> 100	> 100	> 100	–	> 100	> 100	–	> 100	–
Nc1ccc(-c2nc3cc(F)ccc3s2)cc1CO	> 100	19.7	42.1	> 100	> 100	> 100	> 100	> 100	> 100	0.0141	–
CCOC(=O)C(=O)NCCCN1CCOCC1	–	–	> 100	> 100	> 100	> 100	> 100	> 100	> 100	> 100	–
CCCSc1ccc2[nH]c(N3C(=O)/C(=C/c4cc(OC)c(OC)c(OC)c4)N=C3c3ccccc3)cc2c1	> 34.2	> 37.5	> 37.5	> 37.5	> 37.5	> 37.5	> 37.5	> 37.5	19	> 25.8	–
COC(=S)OC1CC(n2cnc3c(N)ncnc32)OC1CO[Si](C)(C)C(C)(C)C (centres undefined)	82.6	44.8	38.7	–	96.7	–	44	72.8	–	56.9	–
COC(=O)C[C@H](COCc1ccccc1)NC(=O)C[C@H](COCc1ccccc1)NC(=O)OC(C)(C)C	72.2	51.1	> 100	> 100	> 100	45.4	36.7	–	> 100	61.9	–
O=C(O)C(O)C(O)C(O)C(=O)CO (centres undefined)	> 100	> 100	> 100	> 100	> 100	> 100	> 100	> 100	> 100	> 100	–
O=C1/C(=C\c2ccc(F)cc2)CCOc2c1ccc1ccccc21	45.9	51.9	39.4	> 81.6	> 71.1	> 100	> 100	54.4	47.9	> 62.1	–
Cc1ccccc1NC(=O)CC(=O)N1N=C(N2c3ccccc3Sc3ccccc32)CC1c1ccccc1 (centres undefined)	–	–	> 100	> 100	> 100	> 100	> 100	> 100	> 100	> 100	–
C/C(N=Nc1nc2ccccc2[nH]1)=C1/C=CC=CN1O	> 100	> 100	> 100	> 100	> 100	> 100	> 100	> 100	> 100	> 100	–
